In the supplement of paper PMC11061612:

How the values were obtained:
Test in all cases: Bliss excess, mean over the matrix (fraction); higher = more synergy
NB69 (Neuroblastoma) = system: NB69 (Neuroblastoma)
In short: (§1)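 Cell lines in DMEM/F12 or RPMI with 10% FBS were plated in 1536-well plates, held 24 hours at 37°C, 5% CO2, then given two-drug dose matrices for 72 hours (DMSO typically 0.2%). Viability was read by CellTiter-Glo 2.0 luminescence and scaled as inhibition from 0 (vehicle wells) to 1 (blank wells). Combination Emax is the second-highest inhibition in the matrix; Bliss excess is observed combination effect minus expected EA + EB − EA·EB, EA and EB being single-agent effects.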

PWR-1E (Non-Cancerous) = system: PWR-1E (Non-Cancerous)
In short: as §1

[1] = system: HGC-27 (Gastric Carcinoma)
In short: as §1

D-263MG (Glioblastoma) = system: D-263MG (Glioblastoma)
In short: as §1

[2] = system: VA-ES-BJ (Other Solid Carcinomas)
In short: as §1

[3] = system: MLMA (Other Blood Carcinomas)
In short: as §1

[4] = system: RF-48 (B-Cell Non-Hodgkin's Lymphoma)
In short: as §1

UACC-62 (Melanoma) = system: UACC-62 (Melanoma)
In short: as §1

[5] = system: NCI-H1915 (Non-Small Cell Lung Carcinoma)
In short: as §1

[6] = system: SW13 (Other Solid Carcinomas)
In short: as §1

[7] = system: OVCAR-4 (Ovarian Carcinoma)
In short: as §1

EW-24 (Ewing's Sarcoma) = system: EW-24 (Ewing's Sarcoma)
In short: as §1

[8] = system: BT-549 (Breast Carcinoma)
In short: as §1

[9] = system: SU8686 (Pancreatic Carcinoma)
In short: as §1

[10] = system: EoL-1-cell (Acute Myeloid Leukemia)
In short: as §1

[11] = system: MIA-PaCa-2 (Pancreatic Carcinoma)
In short: as §1

[12] = system: C-4-I (Cervical Carcinoma)
In short: as §1

[13] = system: AMO-1 (Plasma Cell Myeloma)
In short: as §1

[14] = system: NCI-H727 (Other Solid Carcinomas)
In short: as §1

[15] = system: EFM-19 (Breast Carcinoma)
In short: as §1

Compound | Bliss excess (NB69 (Neuroblastoma)) | Bliss excess (PWR-1E (Non-Cancerous)) | Bliss excess [1] | Bliss excess (D-263MG (Glioblastoma)) | Bliss excess [2] | Bliss excess [3] | Bliss excess [4] | Bliss excess (UACC-62 (Melanoma)) | Bliss excess [5] | Bliss excess [6] | Bliss excess [7] | Bliss excess (EW-24 (Ewing's Sarcoma)) | Bliss excess [8] | Bliss excess [9] | Bliss excess [10] | Bliss excess [11] | Bliss excess [12] | Bliss excess [13] | Bliss excess [14] | Bliss excess [15]
CC1(C)CCC(CN2CCN(c3ccc(C(=O)NS(=O)(=O)c4ccc(NCC5CCOCC5)c([N+](=O)[O-])c4)c(Oc4cnc5[nH]ccc5c4)c3)CC2)=C(c2ccc(Cl)cc2)C1 [Venetoclax] + C[C@@H](Nc1cc(F)cc(F)c1)c1cc(C(=O)N(C)C)cc2c(=O)cc(N3CCOCC3)oc12 [AZD8186] (first compound max 1 µM, 7x7, partner max 3 µM) | -0.221 | -0.0112 | -0.0256 | -0.0044 | -0.0245 | -0.0327 | 0.0481 | 0.0118 | -0.0264 | -0.0263 | -0.0186 | -0.01 | -0.0328 | -0.0303 | 0.103 | -0.0513 | 0.0078 | -0.0065 | -0.0654 | -0.0099
CS(=O)(=O)CCNCc1ccc(-c2ccc3ncnc(Nc4ccc(OCc5cccc(F)c5)c(Cl)c4)c3c2)o1 [Lapatinib] + C[C@@H](Oc1cc(-c2cnn(C3CCNCC3)c2)cnc1N)c1c(Cl)ccc(F)c1Cl [Crizotinib] (first compound max 10 µM, 7x7, partner max 10 µM) | -0.0592 | -0.0184 | -0.0903 | -0.0621 | 0.005 | -0.0721 | -0.0441 | -0.0153 | -0.0169 | -0.0291 | -0.0231 | -0.0105 | -0.0916 | -0.0299 | -0.0547 | -0.0517 | 0.0399 | -0.0458 | -0.0097 | -0.0109
Cc1c2c(nn1C)CSCc1cc(n(C)n1)CSc1cc(c3ccccc3c1)OCCCc1c(C(=O)O)n(C)c3c-2c(Cl)ccc13 [AZD5991] + Cc1cc2ncnn2cc1Nc1ncc2c(n1)n(C1CCOCC1)c(=O)n2C [AZD7648] (first compound max 1 µM, 7x7, partner max 10 µM) | -0.0009 | -0.0363 | -0.0131 | 0.0046 | -0.0239 | -0.0001 | -0.0115 | -0.0534 | -0.0226 | 0.0165 | -0.0073 | -0.035 | -0.0523 | -0.0366 | -0.0018 | -0.0385 | -0.0135 | -0.0215 | -0.0833 | -0.0215
Cc1c2c(nn1C)CSCc1cc(n(C)n1)CSc1cc(c3ccccc3c1)OCCCc1c(C(=O)O)n(C)c3c-2c(Cl)ccc13 [AZD5991] + C[C@@H]1COCCN1C2=NC(=NC(=C2)C3(CC3)[S@](=N)(=O)C)C4=C5C=CNC5=NC=C4 [AZD6738] (first compound max 1 µM, 7x7, partner max 10 µM) | 0.0301 | 0.005 | 0.0562 | -0.0023 | 0.0023 | -0.0392 | -0.0062 | 0.0478 | 0.0212 | 0.0363 | -0.0472 | -0.0078 | 0.0869 | -0.008 | 0.0036 | 0.0652 | 0.0416 | 0.0055 | 0.025 | 0.0543
CN(C)CCCOc1ccc(-c2ccc3ncc4c(c3c2)n(C2CCOCC2)c(=O)n4C)cn1 [AZD0156] + C[C@@H]1COCCN1C2=NC(=NC(=C2)C3(CC3)[S@](=N)(=O)C)C4=C5C=CNC5=NC=C4 [AZD6738] (first compound max 1 µM, 7x7, partner max 10 µM) | -0.069 | -0.0357 | 0.0357 | 0.0366 | 0.0085 | -0.0132 | 0.0487 | -0.0035 | 0.0366 | 0.0112 | 0.0213 | -0.0225 | -0.0042 | 0.0025 | 0.0408 | -0.0055 | 0.0071 | 0.0146 | 0.0226 | -0.0264
COc1nnc2ccc(N3CCC(c4ccc(OCCN5CCN(C)C(=O)[C@H]5C)cc4)CC3)nn12 [AZD5153] + C[C@@H]1COCCN1C2=NC(=NC(=C2)C3(CC3)[S@](=N)(=O)C)C4=C5C=CNC5=NC=C4 [AZD6738] (first compound max 1 µM, 7x7, partner max 10 µM) | 0.008 | 0.0015 | -0.0376 | 0.0106 | 0.0315 | -0.111 | -0.0851 | 0.0179 | -0.0054 | -0.022 | 0.0127 | -0.0044 | -0.0139 | -0.0329 | -0.0066 | 0.0077 | 0.0654 | -0.0361 | 0.0364 | 0.0541
Cn1cnc2c(F)c(Nc3ccc(Br)cc3Cl)c(C(=O)NOCCO)cc21 [Selumetinib] + C[C@@H]1COCCN1C2=NC(=NC(=C2)C3(CC3)[S@](=N)(=O)C)C4=C5C=CNC5=NC=C4 [AZD6738] (first compound max 10 µM, 7x7, partner max 10 µM) | -0.0029 | -0.0381 | -0.0513 | -0.03 | -0.0714 | -0.106 | -0.0651 | 0.063 | -0.0264 | 0.0113 | 0.0169 | -0.0785 | -0.0936 | -0.0168 | 0.0058 | 0.0499 | 0.0615 | -0.0261 | 0.0201 | -0.0188
NC1(C(=O)N[C@@H](CCO)c2ccc(Cl)cc2)CCN(c2ncnc3[nH]ccc23)CC1 [Capivasertib] + CCN(CCO)CCCOc1ccc2c(Nc3cc(CC(=O)Nc4cccc(F)c4)[nH]n3)ncnc2c1 [AZD2811] (first compound max 10 µM, 7x7, partner max 1 µM) | -0.0339 | -0.0124 | -0.0167 | 0.0163 | 0.0367 | -0.0388 | -0.0019 | -0.016 | -0.0294 | -0.0397 | -0.0092 | -0.0029 | -0.0197 | -0.0212 | -0.0177 | 0.0031 | -0.0492 | 0.0783 | -0.0058 | -0.0084
CC(=O)Nc1cccc(-n2c(=O)n(C3CC3)c(=O)c3c(Nc4ccc(I)cc4F)n(C)c(=O)c(C)c32)c1 [Trametinib] + Cc1nc(-c2cn3c(n2)-c2ccc(-c4cnn(C(C)(C)C(N)=O)c4)cc2OCC3)n(C(C)C)n1 [Taselisib] (first compound max 1 µM, 7x7, partner max 10 µM) | 0.0304 | 0.121 | -0.062 | 0.132 | -0.0328 | -0.036 | 0.0627 | -0.0422 | 0.045 | 0.316 | 0.104 | 0.0141 | 0.0203 | 0.094 | 0.232 | 0.148 | 0.229 | 0.316 | -0.0129 | -0.0544
CC1(C)CCC(CN2CCN(c3ccc(C(=O)NS(=O)(=O)c4ccc(NCC5CCOCC5)c([N+](=O)[O-])c4)c(Oc4cnc5[nH]ccc5c4)c3)CC2)=C(c2ccc(Cl)cc2)C1 [Venetoclax] + CN(C)CCCOc1ccc(-c2ccc3ncc4c(c3c2)n(C2CCOCC2)c(=O)n4C)cn1 [AZD0156] (first compound max 1 µM, 7x7, partner max 1 µM) | -0.0548 | 0.0005 | 0.0396 | 0.0045 | -0.0204 | 0.0062 | -0.0109 | 0.0254 | -0.018 | 0.027 | -0.0338 | 0.0147 | -0.0049 | -0.0036 | 0.0038 | 0.0184 | 0.0229 | -0.0122 | -0.0499 | -0.0184
Cc1c2c(nn1C)CSCc1cc(n(C)n1)CSc1cc(c3ccccc3c1)OCCCc1c(C(=O)O)n(C)c3c-2c(Cl)ccc13 [AZD5991] + C=CCn1c(=O)c2cnc(Nc3ccc(N4CCN(C)CC4)cc3)nc2n1-c1cccc(C(C)(C)O)n1 [AZD1775] (first compound max 1 µM, partner max 1 µM) | -0.0267 | -0.0124 | -0.0061 | -0.0168 | 0.0475 | -0.0326 | 0.0064 | 0.0675 | -0.0552 | 0.0002 | 0.0117 | 0.0056 | 0.024 | 0.0175 | 0.0097 | -0.0424 | 0.0267 | -0.0189 | -0.0171 | 0.054
CCc1c2c(nc3ccc(O)cc13)-c1cc3c(c(=O)n1C2)COC(=O)[C@]3(O)CC [SN-38] + CN(C)CCCOc1ccc(-c2ccc3ncc4c(c3c2)n(C2CCOCC2)c(=O)n4C)cn1 [AZD0156] (first compound max 0.3 µM, 7x7, partner max 1 µM) | 0.0106 | 0.0948 | 0.077 | 0.0701 | -0.0165 | -0.0501 | -0.0098 | 0.0077 | -0.0563 | 0.0279 | -0.0149 | -0.0189 | -0.0888 | -0.0327 | 0.098 | 0.0279 | 0.115 | -0.103 | -0.006 | -0.064
